From patent US20070128731A1, “Methods for preparing crystalline rapamycin and for measuring crystallinity of rapamycin compounds using differential scanning calorimetry” (Wyeth, priority 2005, published 2007)

Experiment: Storage stability of crystalline rapamycin followed by DSC
Type: physicochemical
Description: In one example, the crystallinity is maintained over a period of about 2 months. In another example, the crystallinity is maintained over a period of about 4 months. In a further example, the crystallinity is maintained up to about 60% relative humidity.
In this example, samples containing rapamycin (Table 3) were analyzed by DSC and optical microscopy. The morphology and approximate particle size were determined using optical microscopy. A standard DSC sample ramp rate of 10° C./min and a hermetically sealed aluminum pan were utilized.
Sample 2 contained crystalline rapamycin and about 2 to about 3% of oxidative/hydrolysis degradation impurities and was prepared using the process of Example 3. A portion of the batch was maintained at 25° C. and 60% relative humidity for 2 months.
Sample 3 contains crystalline rapamycin and about 2 to about 3% of oxidative/hydrolysis degradation impurities and was prepared using the process of example 3. A portion of the batch was subjected to 25° C. and 60% relative humidity for 4 months.

- effect of low levels of impurities on DSC melting temperature over time (about 2 to about 3% oxidative/hydrolysis degradation impurities, 25° C. and 60% relative humidity, 2 and 4 months): do not affect
- crystallinity on storage (period up to 4 months at up to about 60% relative humidity): substantially maintained
- change in the DSC melting endotherm on storage (stored for up to 4 months at up to about 60% relative humidity): minimal change
Structure (SMILES): CO[C@H]1C[C@@H]2CC[C@@H](C)[C@@](O)(O2)C(=O)C(=O)N2CCCC[C@H]2C(=O)O[C@H]([C@H](C)C[C@@H]2CC[C@@H](O)[C@H](OC)C2)CC(=O)[C@H](C)/C=C(\C)[C@@H](O)[C@@H](OC)C(=O)[C@H](C)C[C@H](C)/C=C/C=C/C=C/1C [rapamycin]
